Measurements reported in patent publication US10294202B2, “Pyrrolidinones as herbicides” (FMC Corporation, priority 2013, dated 2019).

Key:
pigweed = assay: Test A pre-/postemergence herbicide test; assay type: in vivo, Amaranthus retroflexus
Summary of the method: (§1)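 Seeds sown in loam soil/sand blend received a preemergence directed soil spray of test chemical in non-phytotoxic solvent with surfactant; postemergence plants (2–10 cm, one- to two-leaf stage) were sprayed with the same formulation. After about 10 days in greenhouse, injury was rated visually versus untreated controls, 0 (no effect) to 100 (complete control).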

wheat = assay: Test A pre-/postemergence herbicide test; assay type: in vivo, Triticum aestivum
Summary of the method: as §1

barnyardgrass [1] = assay: Test B flooded paddy test; assay type: in vivo, Echinochloa crus-galli; conditions: Flood, scale of 0 to 100 where 0 is no effect and 100 is complete control
Summary of the method: (§2)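 Treatment was made at the 2-leaf stage by dosing the standing floodwater, kept 3 cm above soil level for the whole test. Greenhouse exposure lasted 13 to 15 days. Response is a visual percent rating relative to controls, where a dash indicates no test result.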

crabgrass, large = assay: Test A pre-/postemergence herbicide test; assay type: in vivo, Digitaria sanguinalis
Summary of the method: as §1

sedge, umbrella = assay: Test B flooded paddy test; assay type: in vivo, Cyperus difformis; conditions: Flood, scale of 0 to 100 where 0 is no effect and 100 is complete control
Summary of the method: as §2

barnyardgrass [2] = assay: Test A pre-/postemergence herbicide test; assay type: in vivo, Echinochloa crus-galli
Summary of the method: as §1

giant foxtail = assay: Test A pre-/postemergence herbicide test; assay type: in vivo, Setaria faberii
Summary of the method: as §1

ducksalad = assay: Test B flooded paddy test; assay type: in vivo, Heteranthera limosa; conditions: Flood, scale of 0 to 100 where 0 is no effect and 100 is complete control
Summary of the method: as §2

morningglory = assay: Test A pre-/postemergence herbicide test; assay type: in vivo, Ipomoea spp.
Summary of the method: as §1

corn = assay: Test A pre-/postemergence herbicide test; assay type: in vivo, Zea mays
Summary of the method: as §1

rice = assay: Test B flooded paddy test; assay type: in vivo, Oryza sativa; conditions: Flood, scale of 0 to 100 where 0 is no effect and 100 is complete control
Summary of the method: as §2

velvetleaf = assay: Test A pre-/postemergence herbicide test; assay type: in vivo, Abutilon theophrasti
Summary of the method: as §1

[3] = 125 g ai/ha, visual rating, 0 to 100 scale, 0 no effect, 100 complete control, approximately 10 days, preemergence
[4] = Postemergence, 125 g ai/ha, 0 to 100 scale, 0 is no effect, 100 is complete control
[5] = preemergence, 500 g ai/ha, 0 to 100 scale, 0 is no effect and 100 is complete control
[6] = Postemergence, 500 g ai/ha, 0 to 100 scale (0 no effect, 100 complete control)
[7] = Preemergence, 125 g ai/ha, 0 to 100 scale where 0 is no effect and 100 is complete control
[8] = Postemergence, 125 g ai/ha, 0 to 100 scale, 0 no effect, 100 complete control
[9] = Preemergence, 125 g ai/ha, visual rating on 0 to 100 scale (0 no effect, 100 complete control)
[10] = preemergence, 500 g ai/ha, 0 to 100 scale

With `COc1ccc(C2CNC(=O)C2C(=O)Nc2cccc(F)c2F)cc1F` (racemic) [Compound 198] the “Plant response rating, Pigweed” value (pigweed; [3]) was 0, the “Plant response rating, Pigweed” value (pigweed; [4]) was 0 and the “Pigweed plant response rating (0 to 100 scale, 0 is no effect, 100 is complete control)” value (pigweed; Postemergence, 500 g ai/ha) was 0. For the same compound, the “Plant response rating, Pigweed” value (pigweed; [5]) was 0, the “Plant response rating, Wheat” value (wheat; [3]) was 0 and the “Plant response rating, Wheat” value (wheat; [4]) was 0. For the same compound, the “Wheat plant response rating (0 to 100 scale, 0 is no effect, 100 is complete control)” value (wheat; Postemergence, 500 g ai/ha) was 0, the “Plant response rating, Wheat” value (wheat; [5]) was 0 and the “Plant response rating, Barnyardgrass” value (barnyardgrass [1]; 250 g ai/ha) was 0. The “Plant response rating, Barnyardgrass” value (barnyardgrass [1]; 1000 g ai/ha) was 65, the “Plant response rating, Crabgrass, Large” value (crabgrass, large; [3]) was 90 and the “Plant response rating, Crabgrass, Large” value (crabgrass, large; [4]) was 50. The “Crabgrass, Large plant response rating (0 to 100 scale, 0 is no effect, 100 is complete control)” value (crabgrass, large; Postemergence, 500 g ai/ha) was 80, the “Plant response rating, Crabgrass, Large” value (crabgrass, large; [5]) was 100 and the “Plant response rating, Sedge, Umbrella” value (sedge, umbrella; 250 g ai/ha) was 0. For the same compound, the “Plant response rating, Sedge, Umbrella” value (sedge, umbrella; 1000 g ai/ha) was 0, the “Plant response rating, Barnyardgrass” value (barnyardgrass [2]; [3]) was 50 and the “Plant response rating, Barnyardgrass” value (barnyardgrass [2]; [4]) was 50. The “Barnyardgrass plant response rating (0 to 100 scale, 0 is no effect, 100 is complete control)” value (barnyardgrass [2]; Postemergence, 500 g ai/ha) was 80, the “Plant response rating, Barnyardgrass” value (barnyardgrass [2]; [5]) was 90 and the “Plant response rating, Foxtail, Giant” value (giant foxtail; [3]) was 50. For the same compound, the “Plant response rating, Foxtail, Giant” value (giant foxtail; [4]) was 10, the “Foxtail, Giant plant response rating (0 to 100 scale, 0 is no effect, 100 is complete control)” value (giant foxtail; Postemergence, 500 g ai/ha) was 60 and the “Plant response rating, Foxtail, Giant” value (giant foxtail; [5]) was 80. For the same compound, the “Plant response rating, Ducksalad” value (ducksalad; 250 g ai/ha) was 70, the “Plant response rating, Ducksalad” value (ducksalad; 1000 g ai/ha) was 95 and the “Plant response rating, Morningglory” value (morningglory; [3]) was 0. For the same compound, the “Plant response rating, Morningglory” value (morningglory; [4]) was 0, the “Morningglory plant response rating (0 to 100 scale, 0 is no effect, 100 is complete control)” value (morningglory; Postemergence, 500 g ai/ha) was 0 and the “Plant response rating, Morningglory” value (morningglory; [5]) was 0. The “Plant response rating, Corn” value (corn; [3]) was 0, the “Plant response rating, Corn” value (corn; [4]) was 0 and the “Corn plant response rating (0 to 100 scale, 0 is no effect, 100 is complete control)” value (corn; Postemergence, 500 g ai/ha) was 0. The “Plant response rating, Corn” value (corn; [5]) was 0, the “Plant response rating, Rice” value (rice; 250 g ai/ha) was 0 and the “Plant response rating, Rice” value (rice; 1000 g ai/ha) was 15. For the same compound, the “Plant response rating, Velvetleaf” value (velvetleaf; [3]) was 0, the “Plant response rating, Velvetleaf” value (velvetleaf; [4]) was 0 and the “Velvetleaf plant response rating (0 to 100 scale, 0 is no effect, 100 is complete control)” value (velvetleaf; Postemergence, 500 g ai/ha) was 0. The “Plant response rating, Velvetleaf” value (velvetleaf; [5]) was 0.
In the case of `O=C1NCC(c2ccc(F)c(F)c2)C1C(=O)Nc1cccc(C(F)(F)F)n1` (racemic) [Compound 245], the “Plant response rating, Pigweed” value (pigweed; [4]) is reported as 40, the “Plant response rating, Pigweed” value (pigweed; [6]) is reported as 40 and the “Plant response rating, Pigweed” value (pigweed; [7]) is reported as 0. The “Plant response rating, Pigweed” value (pigweed; [5]) was 30, the “Plant response rating, Wheat” value (wheat; [4]) was 0 and the “Plant response rating, Wheat” value (wheat; [6]) was 40. For the same compound, the “Plant response rating, Wheat” value (wheat; [7]) was 0, the “Plant response rating, Wheat” value (wheat; [5]) was 0 and the “Plant response rating, Barnyardgrass” value (barnyardgrass [1]; 1000 g ai/ha) was 20. The “Plant response rating, Crabgrass, Large” value (crabgrass, large; [4]) was 20, the “Plant response rating, Crabgrass, Large” value (crabgrass, large; [6]) was 30 and the “Plant response rating, Crabgrass, Large” value (crabgrass, large; [7]) was 60. For the same compound, the “Plant response rating, Crabgrass, Large” value (crabgrass, large; [5]) was 80, the “Plant response rating, Sedge, Umbrella” value (sedge, umbrella; 1000 g ai/ha) was 0 and the “Plant response rating, Barnyardgrass” value (barnyardgrass [2]; [4]) was 30. For the same compound, the “Plant response rating, Barnyardgrass” value (barnyardgrass [2]; [6]) was 50, the “Plant response rating, Barnyardgrass” value (barnyardgrass [2]; [7]) was 20 and the “Plant response rating, Barnyardgrass” value (barnyardgrass [2]; [5]) was 20. For the same compound, the “Plant response rating, Foxtail, Giant” value (giant foxtail; [4]) was 20, the “Plant response rating, Foxtail, Giant” value (giant foxtail; [6]) was 30 and the “Plant response rating, Foxtail, Giant” value (giant foxtail; [7]) was 60. For the same compound, the “Plant response rating, Foxtail, Giant” value (giant foxtail; [5]) was 70, the “Plant response rating, Ducksalad” value (ducksalad; 1000 g ai/ha) was 90 and the “Plant response rating, Morningglory” value (morningglory; [4]) was 0. The “Plant response rating, Morningglory” value (morningglory; [6]) was 0, the “Plant response rating, Morningglory” value (morningglory; [7]) was 0 and the “Plant response rating, Morningglory” value (morningglory; [5]) was 0. For the same compound, the “Plant response rating, Corn” value (corn; [4]) was 0, the “Plant response rating, Corn” value (corn; [6]) was 0 and the “Plant response rating, Corn” value (corn; [7]) was 0. The “Plant response rating, Corn” value (corn; [5]) was 0, the “Plant response rating, Rice” value (rice; 1000 g ai/ha) was 0 and the “Plant response rating, Velvetleaf” value (velvetleaf; [4]) was 20. For the same compound, the “Plant response rating, Velvetleaf” value (velvetleaf; [6]) was 40, the “Plant response rating, Velvetleaf” value (velvetleaf; [7]) was 0 and the “Plant response rating, Velvetleaf” value (velvetleaf; [5]) was 0.
In the case of `O=C1NCC(c2ccc(F)c(F)c2)C1C(=O)Nc1ccccn1` (centres unmarked) [Compound 45], the “Plant response rating, Pigweed” value (pigweed; [8]) is reported as 0, the “Plant response rating, Pigweed” value (pigweed; [6]) is reported as 0 and the “Pigweed plant response rating” value (pigweed; [9]) is reported as 0. For the same compound, the “Plant response rating, Pigweed” value (pigweed; [10]) was 0, the “Plant response rating, Wheat” value (wheat; [8]) was 0 and the “Plant response rating, Wheat” value (wheat; [6]) was 0. For the same compound, the “Wheat plant response rating” value (wheat; [9]) was 0, the “Plant response rating, Wheat” value (wheat; [10]) was 0 and the “Plant response rating, Barnyardgrass” value (barnyardgrass [1]; 250 g ai/ha) was 0. The “Plant response rating, Crabgrass, Large” value (crabgrass, large; [8]) was 60, the “Plant response rating, Crabgrass, Large” value (crabgrass, large; [6]) was 80 and the “Crabgrass, Large plant response rating” value (crabgrass, large; [9]) was 80. For the same compound, the “Plant response rating, Crabgrass, Large” value (crabgrass, large; [10]) was 90, the “Plant response rating, Sedge, Umbrella” value (sedge, umbrella; 250 g ai/ha) was 40 and the “Plant response rating, Barnyardgrass” value (barnyardgrass [2]; [8]) was 50. The “Plant response rating, Barnyardgrass” value (barnyardgrass [2]; [6]) was 80, the “Barnyardgrass plant response rating” value (barnyardgrass [2]; [9]) was 10 and the “Plant response rating, Barnyardgrass” value (barnyardgrass [2]; preemergence, 500 g ai/ha, 0 to 100 scale (0 no effect, 100 complete control)) was 80. The “Plant response rating, Foxtail, Giant” value (giant foxtail; [8]) was 20, the “Plant response rating, Foxtail, Giant” value (giant foxtail; [6]) was 70 and the “Foxtail, Giant plant response rating” value (giant foxtail; [9]) was 50. The “Plant response rating, Foxtail, Giant” value (giant foxtail; [10]) was 80, the “Plant response rating, Ducksalad” value (ducksalad; 250 g ai/ha) was 80 and the “Plant response rating, Morningglory” value (morningglory; [8]) was 40. The “Plant response rating, Morningglory” value (morningglory; [6]) was 50, the “Morningglory plant response rating” value (morningglory; [9]) was 0 and the “Plant response rating, Morningglory” value (morningglory; [10]) was 0. The “Corn plant response rating” value (corn; [9]) was 0, the “Plant response rating, Corn” value (corn; [10]) was 0 and the “Plant response rating, Rice” value (rice; 250 g ai/ha) was 20. For the same compound, the “Plant response rating, Velvetleaf” value (velvetleaf; [8]) was 0, the “Plant response rating, Velvetleaf” value (velvetleaf; [6]) was 0 and the “Velvetleaf plant response rating” value (velvetleaf; [9]) was 0. The “Plant response rating, Velvetleaf” value (velvetleaf; [10]) was 0.
